Assay results reported in patent publication US20240124545A1, “COMPOSITIONS AND METHODS RELATING TO THE TREATMENT OF DISEASES” (ILC THERAPEUTICS LIMITED, priority 2021, published 2024).
“And” between values parts separate entries of the source, which are not always exact repeats. Equal entries are not always repeated. Where two headings read alike, the source gives them in different places.

Key:
HIV-1 LAI [1] = assay: HIV-1 LAI infectivity assay with β-galactosidase readout (Experiment 5); assay type: cell-based, human immunodeficiency virus type 1 (HIV-1) LAI strain; details: for HIV infection blocked by control antiviral: 0.5 μM
HIV-1 LAI [2] = details: for HIV Infectivity in HeLa CD4 βgal cells (β-gal units) - antiviral control / HIV Infectivity in HeLa CD4 βgal cells, percentage of vehicle - antiviral control: single data point
in vitro [3] = details: human, uninfected HeLa-CD4-βgal cells
in vitro [4] = details: human, uninfected HeLa-CD4-βgal cells; remark: listed apart in the source
[5] = XTT viability (cytotoxicity) assay, uninfected HeLa-CD4-βgal cells (Experiment 4); details: human, uninfected HeLa-CD4-βgal cells

Q: Which “block of HIV infection by control inhibitor” value (HIV-1 LAI [1]) does the source give for enfuvirtide here?
A: completely blocked HIV infection

Q: And the “HIV infection blocked by control antiviral” value (HIV-1 LAI [1])?
A: ~100%

Q: And the “HIV infection blocked by control antiviral” value (HIV-1 LAI [1]; listed as T20)?
A: over 99%

Q: What about the “HIV-1 Infectivity in HeLa-CD4-βgal cells (% vehicle)” value (HIV-1 LAI [1]; control antiviral 0.5 μM, duplicate data points) of the same substance?
A: 0.0 % vehicle

Q: And the “HIV Infectivity in HeLa CD4 βgal cells (β-galactosidase units)” value (HIV-1 LAI [1]; control antiviral 0.5 μM, individual values)?
A: 3,953 RLU and 3,657 RLU

Q: And the “HIV Infectivity in HeLa CD4 βgal cells (β-galactosidase units)” value (HIV-1 LAI [2])?
A: 3,399 RLU and 4,452 RLU

Q: What about the “HIV Infectivity in HeLa-CD4-βgal cells (% vehicle)” value (HIV-1 LAI [2]) of the same substance?
A: 0.1 % vehicle

Q: And the “HIV Infectivity in HeLa CD4 βgal cells (β-gal units) - antiviral control” value (HIV-1 LAI [2]; 0.00005 μM)?
A: 1,159,781 RLU

Q: What about the “HIV Infectivity in HeLa CD4 βgal cells, percentage of vehicle - antiviral control” value (HIV-1 LAI [2]; 0.00005 μM) of the same substance?
A: 102.2 % vehicle

Q: What about the “HIV Infectivity in HeLa CD4 βgal cells (β-gal units) - antiviral control” value (HIV-1 LAI [2]; 0.0003 μM) of the same substance?
A: 1,083,305 RLU

Q: What about the “HIV Infectivity in HeLa CD4 βgal cells, percentage of vehicle - antiviral control” value (HIV-1 LAI [2]; 0.0003 μM) of the same substance?
A: 95.4 % vehicle

Q: What about the “HIV Infectivity in HeLa CD4 βgal cells (β-gal units) - antiviral control” value (HIV-1 LAI [2]; 0.001 μM) of the same substance?
A: 1,061,348 RLU

Q: What about the “HIV Infectivity in HeLa CD4 βgal cells, percentage of vehicle - antiviral control” value (HIV-1 LAI [2]; 0.001 μM) of the same substance?
A: 93.5 % vehicle

Q: What about the “HIV Infectivity in HeLa CD4 βgal cells (β-gal units) - antiviral control” value (HIV-1 LAI [2]; 0.006 μM) of the same substance?
A: 518,832 RLU

Q: And the “HIV Infectivity in HeLa CD4 βgal cells, percentage of vehicle - antiviral control” value (HIV-1 LAI [2]; 0.006 μM)?
A: 45.5 % vehicle

Q: And the “HIV Infectivity in HeLa CD4 βgal cells (β-gal units) - antiviral control” value (HIV-1 LAI [2]; 0.03 μM)?
A: 73,650 RLU

Q: And the “HIV Infectivity in HeLa CD4 βgal cells, percentage of vehicle - antiviral control” value (HIV-1 LAI [2]; 0.03 μM)?
A: 6.2 % vehicle

Q: And the “HIV Infectivity in HeLa CD4 βgal cells (β-gal units) - antiviral control” value (HIV-1 LAI [2]; 0.2 μM)?
A: 19,736 RLU

Q: What about the “HIV Infectivity in HeLa CD4 βgal cells, percentage of vehicle - antiviral control” value (HIV-1 LAI [2]; 0.2 μM) of the same substance?
A: 1.5 % vehicle

Q: And the “HIV infection blocked by control antivirals” value (HIV-1 LAI [2]; 0.5 μM)?
A: ~100%

Q: And the “HIV Infectivity in HeLa CD4 βgal cells (β-gal units) - antiviral control” value (HIV-1 LAI [2]; 0.8 μM)?
A: 2,604 RLU

Q: And the “HIV Infectivity in HeLa CD4 βgal cells, percentage of vehicle - antiviral control” value (HIV-1 LAI [2]; 0.8 μM)?
A: 0.0 % vehicle

Q: What about the “HIV Infectivity in HeLa CD4 βgal cells (β-gal units) - antiviral control” value (HIV-1 LAI [2]; 4.0 μM) of the same substance?
A: 1,950 RLU

Q: What about the “HIV Infectivity in HeLa CD4 βgal cells, percentage of vehicle - antiviral control” value (HIV-1 LAI [2]; 4.0 μM) of the same substance?
A: −0.1 % vehicle

Q: What about the “HIV Infectivity in HeLa CD4 βgal cells (β-gal units) - antiviral control” value (HIV-1 LAI [2]; 20 μM) of the same substance?
A: 1,538 RLU

Q: And the “HIV Infectivity in HeLa CD4 βgal cells, percentage of vehicle - antiviral control” value (HIV-1 LAI [2]; 20 μM)?
A: −0.1 % vehicle

Q: What about the “loss of cell viability with control inhibitor” value (HeLa-CD4-βgal cells) of the same substance?
A: minimal loss of cell viability

Q: What about the viability at 48 h, 5e-05 µM (in vitro [3]) of the same substance?
A: 87.9%

Q: And the viability at 48 h, 0.0003 µM (in vitro [3])?
A: 87.4%

Q: And the viability at 48 h, 0.001 µM (in vitro [3])?
A: 81.4%

Q: What about the viability at 48 h, 0.006 µM (in vitro [3]) of the same substance?
A: 83.7%

Q: What about the viability at 48 h, 0.03 µM (in vitro [3]) of the same substance?
A: 79.6%

Q: And the viability at 48 h, 0.2 µM (in vitro [3])?
A: 82.5%

Q: What about the viability at 48 h, 0.8 µM (in vitro [3]) of the same substance?
A: 83.8%

Q: And the viability at 48 h, 4 µM (in vitro [3])?
A: 74.4%

Q: And the viability at 48 h, 20 µM (in vitro [3])?
A: 57.1%

Q: What about the viability at 48 h, 0.5 µM (in vitro [4]) of the same substance?
A: 93.1 ± 2.3%

Q: And the CC50 at 48 h [5]?
A: > 20 µM
